Measurements from patent US20120201981A1, “COMBINATIONS OF BIOLOGICAL CONTROL AGENTS WITH A NEMATICIDAL SEED COATING” (priority 2006, published 2012).

Legend:
[1] = tested on: root-knot nematodes, Meloidogyne incognita race 1; experiment: Cucumber green house trial, cucumber seed coating trial 2; assay type: in vivo; conditions: rkn, mean ± SE
Description: (§1) Pots (10-cm diameter) were filled with 250 g (dry weight) steam-pasteurized river bottom sand. Ten treatments with 6 replications were prepared (Table 1). The fungal antagonist Pochonia chlamydosporia was grown on autoclaved moist millet seed for three weeks at 22° C. Colonized millet was dried in a laminar flow hood, and stored aseptically at 4° C. until use. For soil inoculation, P. chlamydosporia-colonized millet was thoroughly mixed with the sand. Population density of the fungus was approximately 2000 chlamydospores/cc soil for rate 1 and 4000 chlamydospores/cc soil for rate 2.
(§2) The nematode inoculum was raised during the previous 3 months on tomato plants (Lycopersicum esculentum cv. Tropic) in the greenhouse. Nematode eggs were obtained by standard bleach/sieving extraction. With the exception of the first treatment, each pot was infested with ca. 30000 eggs of M. incognita. This is a typical infestation level for nematicide tests resulting in high disease pressure (expected gall rating for non-treated control at 8 weeks was approximately 7 on a scale of 0-10 (Zeck, Pflanzenschutz-Nachrichten, Bayer AG, 24:141-144, 1971). Cucumber seeds (Cucumis sativus L. cv. Straight Eight, Burpee Seed Co.) were coated with either0.1 mg or 0.3 mg abamectin/seed or received no further treatment. Each pot received slow-release fertilizer (Osmocote Vegetable and Bedding Plant Food, 14-14-14, The Scotts Company) recommended for tomato production. The pots were arranged in a randomized complete block design in a greenhouse at ca. 24°±3° C. and ambient lighting. Irrigation was applied daily as needed. Three and eight weeks after seeding plant height or main vine length was determined. Eight weeks after seeding the trial was terminated and the plant tops were cut off. They were placed in a drying oven overnight and their weight was determined. The roots were placed in eryoglaucin solution overnight and the stained egg masses of the root-knot nematodes were counted. Root galling was rated on a scale of 0-10 (0=no galling). The trial was repeated once.

[2] = tested on: root-knot nematodes, Meloidogyne incognita race 1; experiment: Tomato green house trials (data of two trials combined); assay type: in vivo; conditions: for J2/50 ml soil / Plant dry weight(g) / Plant height(cm) / egg count/root / egg masses/root / Root galling / fruit weight (g) / number of fruits/plant / total fruit weight/plant (g): tomato, rkn, mean ± SE; for J2/50 ml soil / Plant dry weight(g) / Plant height(cm) / egg count/root / egg masses/root / Root galling: trial termination; for Root galling: scale from 0-10; for fruit weight (g): average fruit weight
Description: The greenhouse trials were conducted in pulp pots (10-cm diameter) filled with steam-pasteurized sand (250 cm^3). The biological control organism (BCO) P. chlamydosporia was grown as described above. P. chlamydosporium-inoculated millet seed were washed (1:2 weight/volume millet seed and sterile distilled water, 2 min shaking in electric blender) and passed through a 100-mesh sieve to remove the millet from the fungal chlamydospores. These served as the inoculum and were counted with a counting chamber (Fuchs-Rosenthal). The chlamydospores were thoroughly mixed with the sand. Population density of fungus was approximately 2000 chlamydospores/g soil for rate 1 and 4000 chlamydospores/g soil for rate 2 (Table 1). Tomato seeds (Lycopersicum esculentum cv. Tiny Tim) were coated with either 0.1 mg or 0.3 mg abamectin/seed or received no further treatment (Table 1). The tomato seeds were sown into seeding trays with commercial seedling substrate and after 2 weeks the plants were transplanted into 10-cm pulp pots. With the exception of the first treatment, each pot was infested with ca. 30000 eggs of M. incognita. Egg hatch rate was approximately 10% on Baerman funnels at 26° C. for 5 days. Each pot received slow release fertilizer (Osmocote Vegetable and Bedding Plant food, 14-14-14, The Scotts Company). Pots were arranged in a randomized complete block design with 6 replications per treatment and incubated in greenhouse at ca. 24±3C and ambient lighting. Plants were watered daily as needed. Plant height was determined and the shoots were cut off at the end of the trial. Shoots be placed in a drying oven at 69° C. for 72 h and the weight of each plant was determined. The extent of root galling was assessed on a scale from 0-10 (Zeck, 1971, supra).
Nematode populations were determined by counting egg masses (=number of fecundate females), eggs and second-stage juvenile (J2). The roots were placed in eryoglaucin solution overnight to stain egg masses of the root-knot nematodes which enabled their enumeration (Omwega et al., 1988). The eggs were released from egg masses through a modified bleach/sieving extraction technique (Hussey and Barker, 1973). Each week, ripe (red) tomato fruits were picked off, and the number and weight were recorded. Picking was continued until fruit production seized. The trial was repeated once. All data were subject to analysis of variation with SuperANOVA (Abacus Concepts, 1989, Berkeley, Calif.). If appropriate, Fisher's Protected Least Significant Difference (LSD) was used to separate means at P=0.05.

M. incognita race 1 = experiment: Tomato miniplot field trial; assay type: in vivo, Meloidogyne incognita; conditions: P. chlamydosporia 4000 chlamydospores/cm^3 substrate
Description: Nine miniplots (3 m diameter, 12 cm deep) were each filled with approximately 350000-cm^3 field soil (sandy loam, pH 7.2) obtained from an adjacent field with no significant infestation of plant-parasitic nematodes. Tomato seedlings (Lycopersicum esculentum cv. Tiny Tim) were raised from abamectin-treated seed (0.3 mg a.i./seed) or from Apron/Maxim-treated seed. They were seeded in seedling trays with commercial transplant substrate (Sunshine mix). The substrate was either non-amended or amended with P. chlamydosporia (4000 chlamydospores/cm^3 substrate). After 3 weeks in a greenhouse, the seedlings were transplanted into the 9 miniplots. Each plot was a randomized block with 4 treatments and three plants per treatment. Each planting area was infested by distributing 10,000 eggs of M. incognita race 1 into three 5 cm deep holes approximately 5 cm from each transplant. The plots were irrigated via low-pressure irrigation and fertilized according to local standard. After approximately 10 weeks the plants set fruit and were harvested three times during the following 3 weeks. Number of fruits and weight were taken. All data were subject to ANOVA and mean separation with Fisher's LSD (P=0.05).

[3] = tested on: Meloidogyne incognita race 3; experiment: Root-knot nematode trial on tomato, abamectin seed coating with soil application of Pasteuria penetrans
Description: Abamectin coated (0.3 mg a.i./seed) and non-treated tomato seed (cv. Kirby) was provided by Syngenta Crop Protection. The treatments were seeded in individual seedling trays. After 3 weeks incubation in a greenhouse at 25°±2° C., the seedlings were transplanted into 1500 cm^3 pots containing the test soil. The soil was collected from a field at the UC South Coast Research and Extension Center at Irvine (San Emigdio sandy loam, 12.5% sand, 12% clay, 75.4% silt, 0.45 OM, pH 7.4). To improve soil aeration and irrigation water drainage, ⅔ of the soil was mixed with ⅓ (v/v) plaster sand. The soil was pasteurized and infested with root-knot nematodes. Meloidogyne incognita race 3 inoculum was reared on tomato cv. UC 82 for ca. three months in greenhouse cultures. Nematode eggs were harvested from the root systems by a modification of a bleach/sieving method (Hussey and Barker, Plant Disease Reporter, 57:1025-1028 (1973)) and used to infested the test soil with 1000 eggs of M. incognita race 3 per 100 cm^3. Pasteuria penetrans was obtained from the University of California Riverside Nematology culture collection. The inoculum was reared on root-knot nematode-infested tomato plants. In the Pasteuria treatments, the soil was amended with approximately 1×10^5 endospores/g soil. The trial was arranged as a complete randomized block with 6 replications and incubated in a greenhouse at 26°±2° C. with ambient light. All pots were fertilized with Osmocote 14-14-14 (label rate for tomato production). Irrigation was applied as needed. Two months after transplanting, plant tops were cut off at the soil level, oven dried and weighted. Roots were rated for galling on a scale of 0-10 (Zeck, Bayer AG, Pflanzenschutz-Nachrichten, 24:141-144 (1971)).

[4] = tested on: root-knot nematodes, Meloidogyne incognita race 1; experiment: Cucumber green house trial, cucumber seed coating trial 1; assay type: in vivo; conditions: for main vine length (cm) @ 8 weeks / number egg masses/root / plant dry weight (g) @ 8 weeks / plant height (mm) @ 3 weeks / root galling @ 8 weeks: cucumber, rkn, mean ± SE; for root galling @ 8 weeks: scale 0-10 (0=no galling)
Description: as §1, §2

[5] = abamectin seed coating 0.1 mg/seed
[6] = abamectin seed coating 0.3 mg/seed
[7] = tomato miniplots, 10,000 eggs per planting area, mean ± SE, abamectin 0.3 mg/seed
[8] = tomato cv. Kirby, two months after transplanting, mean ± SE, abamectin seed coated 0.3 mg a.i./seed, P. penetrans soil incorporated 1 × 10E5/g soil

abamectin
main vine length (cm) @ 8 weeks [1, 5]: 146.2 ± 9.8 c cm | number egg masses/root system @ 8 weeks [1, 5]: 80.8 ± 27.8 b | plant dry weight (g) @ 8 weeks [1, 5]: 6.4 ± 0.5 c g | plant height (mm) @ 3 weeks [1, 5]: 96.2 ± 6.4 bcd mm | root galling @ 8 weeks (scale 0-10) [1, 5]: 5.3 ± 0.2 abc | main vine length (cm) @ 8 weeks [1, 6]: 131.3 ± 6.2 bc cm | number egg masses/root system @ 8 weeks [1, 6]: 36.7 ± 4.0 a | plant dry weight (g) @ 8 weeks [1, 6]: 6.0 ± 0.3 bc g | plant height (mm) @ 3 weeks [1, 6]: 105.8 ± 5.3 cde mm | root galling @ 8 weeks (scale 0-10) [1, 6]: 5.0 ± 0.4 ab | root galling reduction (in words) ([2]; tomato greenhouse, abamectin seed coating alone): approximately two rating classes below the check | J2/50 ml soil [2, 5]: 20.3 ± 4.3ab | Plant dry weight(g) [2, 5]: 5.24 ± 0.35b g | Plant height(cm) [2, 5]: 27.33 ± 0.72cd cm | egg count/root [2, 5]: 346133 ± 39003 days | egg masses/root [2, 5]: 454.2 ± 62.7c | J2/50 ml soil [2, 6]: 7.2 ± 5.4ab | Plant dry weight(g) [2, 6]: 6.31 ± 0.21c g | Plant height(cm) [2, 6]: 26.17 ± 2.14bc cm | egg count/root [2, 6]: 205867 ± 66056bc | egg masses/root [2, 6]: 381.7 ± 120.3c | Root galling [2, 5]: 6.67 ± 0.21ef | Root galling [2, 6]: 5.00 ± 0.52c | fruit weight (g) [2, 5]: 5.19 ± 0.18bc g | fruit weight (g) [2, 6]: 6.00 ± 0.14c g | number of fruits/plant [2, 5]: 31.0 ± 4.6bcd | total fruit weight/plant (g) [2, 5]: 160.3 ± 22.8bc g | number of fruits/plant [2, 6]: 40.5 ± 1.5cde | total fruit weight/plant (g) [2, 6]: 243.3 ± 11.8 g·days | yield (in words) (M. incognita race 1; tomato miniplot field trial, abamectin 0.3 mg a.i./seed): increased the yield significantly | M. incognita eggs/plant (M. incognita race 1; [7]): 171,400 ± 37,100 a | number fruits/plant (M. incognita race 1; [7]): 69.0 ± 3.2 b | root galling at harvest (M. incognita race 1; [7]): 4.5 ± 0.2 c | total fruit weight/plant (M. incognita race 1; [7]): 290.6 ± 12.6 b | J2/50 cc soil ([3]; tomato cv. Kirby, trial termination, mean ± SE, abamectin seed coated 0.3 mg a.i./seed, P. penetrans soil incorporated 1 × 10E5/g soil): 95 ± 15 b | plant top dry weight (g) [3, 8]: 31.3 ± 1.8 ab g | root gall rating (0-10) [3, 8]: 3.3 ± 0.3 ab | root galling (in words) ([3]; tomato, abamectin 0.3 mg a.i./seed, P. penetrans 1×10^5 endospores/g soil): reduced galling by approximately two rating classes | plant growth compared to the non-treated control plants (in words) ([4]; cucumber trial 1, 0.3 mg/seed rate of abamectin): significant increases in early plant growth as well as in plant dry weight and main vine length | plant growth and root galling (in words) ([4]; cucumber trial 1, low rate of abamectin): neither plant growth was improved nor root galling was significantly reduced | main vine length (cm) @ 8 weeks [4, 5]: 100.7 ± 8.8 ab cm | number egg masses/root [4, 5]: 108.2 ± 14.0 ab | plant dry weight (g) @ 8 weeks [4, 5]: 4.2 ± 0.4 a g | plant height (mm) @ 3 weeks [4, 5]: 70.8 ± 2.3 a mm | main vine length (cm) @ 8 weeks [4, 6]: 127.8 ± 11.9 cde cm | number egg masses/root [4, 6]: 85.8 ± 12.8 ab | plant dry weight (g) @ 8 weeks [4, 6]: 5.7 ± 0.4 bc g | plant height (mm) @ 3 weeks [4, 6]: 90.8 ± 7.1 bc mm | root galling @ 8 weeks [4, 5]: 6.3 ± 0.6 de | root galling @ 8 weeks [4, 6]: 5.8 ± 0.4 cde
